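Step 1: Grow cells in 96-well plates. Step 2: Expose to compound for 48 hours at 5 concentrations. Step 3: Interpolate endpoints linearly; if unreached, use highest concentration. At the TGI there is no net growth.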

What all share (experiment): DTP human tumour cell line panel, 48 h
In test [1] the test system is OVCAR-5 ovarian.
For test [2], the system named is SNB-75 CNS.
The test system of test [3] is A498 renal.
The subject of test [4] is BT-549 breast.
In test [5] the test system is COLO 205 colon.
Test [6] has as its system OVCAR-4 ovarian.
The test system of test [7] is SF-539 CNS.
Test [8] relates to HCT-15 colon.
In test [9] the test system is NCI/ADR-RES ovarian.
The test system of test [10] is DU-145 prostate.
Test [11] has as its system MDA-MB-435.
The test system of test [12] is NCI-H23 lung.
In test [13] the test system is TK-10 renal.
Test [14] relates to MDA-MB-231 breast.
Test [15] has as its system SK-OV-3 ovarian.
The test system of test [16] is ACHN renal.
The subject of test [17] is HT29 colon.
Test [18] concerns UACC-62 melanoma.
In test [19] the test system is SK-MEL-28 melanoma.
The test system of test [20] is SK-MEL-5 melanoma.
Test [21] deals with A549 NSCLC.
The subject of test [22] is UO-31 renal.

One may read the TGI as the concentration giving total growth inhibition. As for `CCc1cn2c(/C=N/N=C(N)N)c(-c3cc(C)c(Cl)cc3Cl)nc2s1`, the TGI in test [1] is 2.96 µM; in test [2], 2.88 µM; in test [3], 3.75 µM; in [4], 3.2 µM; in [5], 3.61 µM; in [6] it was 2.78 µM. Moreover, the total growth inhibition concentration (TGI) came out at 3.11 µM in test [7]; 2.97 µM in [8]; 24.8 µM in test [9]; 3 µM in [10]; 2.76 µM in test [11]; 3.16 µM in test [12]. The TGI was found to be 3.46 µM in [13]; 2.12 µM in [14]; 3.56 µM in [15]; 3.04 µM in test [16]; 2.45 µM in test [17]; 2.72 µM in [18]. For the same compound, the TGI was 2.82 µM in [19] and 2.99 µM in [20].

Regarding `Cc1cn2c(/C=N/N=C(N)N)c(-c3cc([N+](=O)[O-])c(Cl)cc3Cl)nc2s1`, the TGI in test [21] is over 100 µM; in test [5] it was over 100 µM; in [9], over 100 µM; in test [22], 3.74 µM.

Values taken from PubChem BioAssay (NCI).
